Data on two molecules can be found in US6500455B1, “Tolperison-containing, pharmaceutical preparation for oral administration” (Sanochemia Pharmazeutika, priority 1999, dated 2002).

Some results are limits rather than exact numbers.

The nature of series [1]: effectiveness of the Tolperison isomers. To be noted: comparison of (−) isomer, (+) isomer and racemic mixtures.
For series [2] the following is noted: blood (of humans); active ingredient present as 50/50 racemate; cited from earlier work.

As for `Cc1ccc(C(=O)C(C)CN2CCCCC2)cc1` (single isomer, unassigned; (+)) [(+) isomer], the “effectiveness of the isomers compared with each other” value in series [1] is given as “almost identically effective”. For the same molecule, the “proportion of the isomer present in the blood” value in series [2] is recorded as no more than 10%.
On to `Cc1ccc(C(=O)C(C)CN2CCCCC2)cc1` (single isomer, unassigned; (-)) [(−) isomer, 2,4′-dimethyl-3-piperidonopropriophenone], for which, in series [1], the “effectiveness of the isomers compared with each other” value was “almost identically effective”. Besides, in series [2], the “proportion of the isomer present in the blood” value is “up to 90%”.
